The results in this text go back to patent publication US20230091225A1, “Bifunctional chimeric heterocyclic compounds for targeted degradation of androgen receptors and use thereof” (HINOVA PHARMACEUTICALS INC., priority 2019, published 2023).

For this test, the target named is T1, androgen receptor (AR) (Homo sapiens, UniProt P10275).
T1 sequence (P10275 1-920): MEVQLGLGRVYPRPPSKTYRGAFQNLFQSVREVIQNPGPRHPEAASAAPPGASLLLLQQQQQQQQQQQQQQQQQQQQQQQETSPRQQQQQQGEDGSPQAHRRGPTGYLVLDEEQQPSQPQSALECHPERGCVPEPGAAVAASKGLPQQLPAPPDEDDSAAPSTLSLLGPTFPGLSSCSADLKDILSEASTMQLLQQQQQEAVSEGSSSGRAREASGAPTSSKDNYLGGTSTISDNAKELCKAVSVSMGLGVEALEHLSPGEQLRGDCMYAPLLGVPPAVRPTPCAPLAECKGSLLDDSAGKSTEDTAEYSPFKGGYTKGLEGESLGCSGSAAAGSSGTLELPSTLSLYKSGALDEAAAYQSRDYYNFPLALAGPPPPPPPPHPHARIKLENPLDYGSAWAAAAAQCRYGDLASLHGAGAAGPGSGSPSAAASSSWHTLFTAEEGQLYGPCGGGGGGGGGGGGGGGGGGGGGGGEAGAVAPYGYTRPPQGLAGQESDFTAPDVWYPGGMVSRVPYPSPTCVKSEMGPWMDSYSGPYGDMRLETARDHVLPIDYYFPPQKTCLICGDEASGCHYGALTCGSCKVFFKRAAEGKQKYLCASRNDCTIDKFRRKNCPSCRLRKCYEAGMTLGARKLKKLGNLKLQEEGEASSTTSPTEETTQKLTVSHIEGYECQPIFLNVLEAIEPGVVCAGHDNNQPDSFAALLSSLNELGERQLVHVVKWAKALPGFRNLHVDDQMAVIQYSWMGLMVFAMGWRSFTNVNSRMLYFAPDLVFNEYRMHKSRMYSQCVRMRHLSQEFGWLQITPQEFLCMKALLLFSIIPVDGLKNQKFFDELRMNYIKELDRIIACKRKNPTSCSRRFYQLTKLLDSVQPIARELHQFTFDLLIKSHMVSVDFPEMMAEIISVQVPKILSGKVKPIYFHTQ
As to the kind of experiment: Degradation of androgen receptor (AR) protein in VCaP cells by ELISA. To be noted: for Dmax: VCaP. In kind it is cell-based.

Setting [1] is: AR degradation, VCaP cells, 16 h, ELISA, Table 3-1, read-out: DC50.
The mark [2] stands for this setting: AR degradation, VCaP cells, 16 h, ELISA, Table 3-1, read-out: Dmax (%).

Where two headings read alike, the source gives them in different places. Some results are limits rather than exact numbers.

Broadly, the DC50 is the concentration at which degradation of the target reaches its halfway point. As usually defined, the Dmax is the largest share of the target that was removed.

For the compound `N#Cc1ccc(O[C@H]2CC[C@H](NC(=O)c3nnc(N4CC5(CCN(CC6CCN(c7cc8c(cc7F)C(=O)N(C7CCC(=O)NC7=O)C8=O)CC6)CC5)C4)s3)CC2)cc1Cl` (stereo partly drawn) [Compound 107, N-((1r,4r)-4-(3-chloro-4-cyanophenoxy)cyclohexyl)-5-(7-((1-(2-(2,6-dioxopiperidin-3-yl)-6-fluoro-1,3-dioxoisoindolin-5-yl)piperidine-4-yl)methyl)-2,7-diazaspiro[3.5]nonan-2-yl)-1,3,4-thiadiazole-2-carboxamide], the DC50 (AR degradation, VCaP cells, 16 h, ELISA, Table 3-2, read-out: DC50) is < 0.01 µM. In addition, the Dmax (AR degradation, VCaP cells, 16 h, ELISA, Table 3-2, read-out: Dmax (%)) is > 80%.

Turning to `N#Cc1ccc(OC2CCC(NC(=O)c3cn(C4CCC(CN5CCC6(CC5)CN(c5cc7c(cc5F)C(=O)N(C5CCC(=O)NC5=O)C7=O)C6)CC4)cn3)CC2)cc1Cl` [Compound 112, N-((1r,4R)-4-(3-chloro-4-cyanophenoxy)cyclohexyl)-1-((1r,4R)-4-((2-(2,6-dioxopiperidin-3-yl)-6-fluoro-1,3-dioxoisoindolin-5-yl)-2,7-diazaspiro[3.5]nonan-7-yl)methyl)cyclohexyl)-1H-imidazole-4-carboxamide], the “Dmax (%)” value is “+ (key: ++++: >80%; +++: 80%-60%; ++: 60%-40%; +: <40%)”. Further, where the note is “read-out: DC50”, the DC50 is > 0.3 µM.

As for `N#Cc1ccc(OC2CCC(NC(=O)c3cn(C4CCC(CN5CCC6(CC5)CN(c5ccc7c(c5)C(=O)N(C5CCC(=O)NC5=O)C7=O)C6)CC4)cn3)CC2)cc1Cl` [Compound 113, N-((1r,4R)-4-(3-chloro-4-cyanophenoxy)cyclohexyl)-1-((1r,4R)-4-((2-(2-(2,6-dioxopiperidin-3-yl)-1,3-dioxoisoindolin-5-yl)-2,7-diazaspiro[3.5]nonan-7-yl)methyl)cyclohexyl)-1H-imidazole-4-formamide], the “Dmax (%)” value is listed as “++++ (key: A: >80%; B: 79%-50%; C: 49%-25%; D: <25%)”. Under “read-out: DC50”, the DC50 is < 0.01 µM.

`N#Cc1ccc(O[C@H]2CC[C@H](NC(=O)c3cn([C@H]4CC[C@H](CN5CCC6(CC5)CN(c5ccc7c(c5)C(=O)N(C5CCC(=O)NC5=O)C7=O)C6)CC4)nn3)CC2)cc1Cl` (stereo partly drawn) [Compound 114, N-((1r,4R)-4-(3-chloro-4-cyanophenoxy)cyclohexyl)-1-((1r,4R)-4-((2-(2-(2,6-dioxopiperidin-3-yl)-1,3-dioxoisoindolin-5-yl)-2,7-diazaspiro[3.5]nonan-7-yl)methyl)cyclohexyl)-1H-1,2,3-triazole-4-carboxamide]: under setting [1], the DC50 is < 0.01 µM. The Dmax under setting [2] was > 80%.

With `N#Cc1ccc(O[C@H]2CC[C@H](NC(=O)c3cn([C@H]4CC[C@H](CN5CCC6(CC5)CN(c5cc7c(cc5F)C(=O)N(C5CCC(=O)NC5=O)C7=O)C6)CC4)nn3)CC2)cc1Cl` (stereo partly drawn) [Compound 115], the DC50 under setting [1] is < 0.01 µM. In addition, the Dmax under setting [2] is > 80%.

In the case of `N#Cc1ccc(O[C@H]2CC[C@H](NC(=O)c3cnn([C@H]4CC[C@H](CN5CCC6(CC5)CN(c5ccc7c(c5)C(=O)N(C5CCC(=O)NC5=O)C7=O)C6)CC4)n3)CC2)cc1Cl` (stereo partly drawn) [Compound 116, N-((1r,4R)-4-(3-chloro-4-cyanophenoxy)cyclohexyl)-2-((1r,4R)-4-((2-(2-(2,6-dioxopiperidin-3-yl)-1,3-dioxoisoindolin-5-yl)-2,7-diazaspiro[3.5]nonan-7-yl)methyl)cyclohexyl)-2H-1,2,3-triazole-4-carboxamide], the DC50 under setting [1] is < 0.01 µM. Besides, the Dmax under setting [2] is > 80%.

For the compound `N#Cc1ccc(O[C@H]2CC[C@H](NC(=O)c3cnn([C@H]4CC[C@H](CN5CCC6(CC5)CN(c5cc7c(cc5F)C(=O)N(C5CCC(=O)NC5=O)C7=O)C6)CC4)n3)CC2)cc1Cl` (stereo partly drawn) [Compound 117], the DC50 under setting [1] fell in the range of 0.1 to 0.3 µM. In addition, the Dmax under setting [2] is > 80%.

Take `CN(C1CCN(c2ccc(C(=O)N[C@H]3CC[C@H](Oc4ccc(C#N)c(Cl)c4)CC3)nn2)CC1)C1CCN(c2cc3c(cc2F)C(=O)N(C2CCC(=O)NC2=O)C3=O)CC1` (stereo partly drawn) [Compound 119]: the Dmax is > 80%. For the same compound, the DC50 under setting [1] is < 0.01 µM.

With `N#Cc1ccc(O[C@H]2CC[C@H](NC(=O)c3ccc(N4CCC(CN5CC6(C5)CN(c5ccc7c(c5)C(=O)N(C5CCC(=O)NC5=O)C7=O)C6)CC4)nn3)CC2)cc1Cl` (stereo partly drawn) [Compound 121, N-((1r,4r)-4-(3-chloro-4-cyanophenoxy)cyclohexyl)-6-(4-((6-(2-(2,6-dioxopiperidin-3-yl)-1,3-dioxoisoindolin-5-yl)-2,6-diazaspiro[3.3]heptan-2-yl)methyl)piperidin-1-yl)pyridazine-3-amide], the DC50 is < 0.01 µM and the Dmax is > 80%.

`N#Cc1ccc(O[C@H]2CC[C@H](NC(=O)c3ccc(N4CCC(CN5CC6(C5)CN(c5cc7c(cc5F)C(=O)N(C5CCC(=O)NC5=O)C7=O)C6)CC4)nn3)CC2)cc1Cl` (stereo partly drawn) [Compound 122, N-((1r,4r)-4-(3-chloro-4-cyanophenoxy)cyclohexyl)-6-(4-((6-(2-(2,6-dioxopiperidin-3-yl)-6-fluoro-1,3-dioxoisoindolin-5-yl)-2,6-diazaspiro[3.3]heptan-2-yl)methyl)piperidin-1-yl)pyridazine-3-amide]: the DC50 was < 0.01 µM and the Dmax was > 80%.

`N#Cc1ccc(O[C@H]2CC[C@H](NC(=O)c3ccc(N4CC5(CN(CC6CCN(c7cc8c(cc7F)C(=O)N(C7CCC(=O)NC7=O)C8=O)CC6)C5)C4)nn3)CC2)cc1Cl` (stereo partly drawn) [Compound 124]: the DC50 under setting [1] was < 0.01 µM. Further, the Dmax under setting [2] was > 80%.

As for `N#Cc1ccc(O[C@H]2CC[C@H](NC(=O)c3cnc(N4CC5(CN(CC6CCN(c7cc8c(cc7F)C(=O)N(C7CCC(=O)NC7=O)C8=O)CC6)C5)C4)cn3)CC2)cc1Cl` (stereo partly drawn) [Compound 125], under setting [1], the DC50 is < 0.01 µM. Further, the Dmax under setting [2] is > 80%.

With `N#Cc1ccc(O[C@H]2CC[C@H](NC(=O)c3ccc(N4CCN(C[C@@H]5[C@H]6CN(c7cc8c(cc7F)C(=O)N(C7CCC(=O)NC7=O)C8=O)C[C@@H]56)CC4)nn3)CC2)cc1Br` (stereo partly drawn) [Compound 126, N-((1r,4r)-4-(3-bromo-4-cyanophenoxy)cyclohexyl)-6-(4-(((1R,5S,6s)-3-(2-(2,6-dioxopiperidin-3-yl)-6-fluoro-1,3-dioxoisoindolin-5-yl)-3-azabicyclo[3.1.0]hexan-6-yl)methyl)piperazin-1-yl)pyridazine-3-amide], the Dmax was > 80%. Also, under setting [1], the DC50 was < 0.01 µM.

Take `N#Cc1ccc(OC2CCC(NC(=O)c3cnc(N4CCN(CC5[C@H]6CN(c7cc8c(cc7F)C(=O)N(C7CCC(=O)NC7=O)C8=O)C[C@@H]56)CC4)nc3)CC2)cc1Cl` (stereo partly drawn) [Compound 128]: the “Dmax (%)” value is reported as “+++ (key: ++++: >80%; +++: 80%-60%; ++: 60%-40%; +: <40%)”. Moreover, the DC50 (read-out: DC50) is 0.01 to 0.1 µM.

For the compound `N#Cc1ccc(O[C@H]2CC[C@H](NC(=O)c3ccc(N4CC5(CC(N6CCN(c7cc8c(cc7F)C(=O)N(C7CCC(=O)NC7=O)C8=O)CC6)C5)C4)nn3)CC2)cc1Cl` (stereo partly drawn) [Compound 129, N-((1r,4r)-4-(3-chloro-4-cyanophenoxy)cyclohexyl)-6-(6-(4-(2-(2,6-dioxopiperidin-3-yl)-6-fluoro-1,3-dioxoisoindolin-5-yl)piperazin-1-yl)-2-azaspiro[3.3]heptan-2-yl)pyridazine-3-amide], under setting [1], the DC50 is < 0.01 µM. In addition, the Dmax under setting [2] was > 80%.

The compound `N#Cc1ccc(O[C@H]2CC[C@H](NC(=O)c3ccc(N4CCC(CN5CCC6(CC5)CN(c5ccc7c(c5)C(=O)N(C5CCC(=O)NC5=O)C7=O)C6)CC4)nn3)CC2)cc1` (stereo partly drawn) [Compound 131, N-((1r,4r)-4-(4-cyanophenoxy)cyclohexyl)-6-(4-((2-(2-(2,6-dioxopiperidin-3-yl)-1,3-dioxoisoindolin-5-yl)-2,7-diazaspiro[3.5]nonan-7-yl)methyl)piperidin-1-yl)pyridazine-3-carboxamide] had a DC50 of 0.01 to 0.1 µM and a Dmax of 60 to 80%.

The compound `N#Cc1ccc(O[C@H]2CC[C@H](NC(=O)c3ccc(N4CCC(CN5CCC6(CC5)CN(c5cc7c(cc5F)C(=O)N(C5CCC(=O)NC5=O)C7=O)C6)CC4)nn3)CC2)cc1` (stereo partly drawn) [Compound 132, N-((1r,4r)-4-(4-cyanophenoxy)cyclohexyl)-6-(4-((2-(2-(2,6-dioxapiperidin-3-yl)-6-fluoro-1,3-dioxoisoindolin-5-yl)-2,7-diazaspiro[3.5]nonan-7-yl)methyl)piperidin-1-yl)pyridazine-3-carboxamide] registered a Dmax of 60 to 80%. In addition, under setting [1], the DC50 was in the range of 0.01 to 0.1 µM.

On to `[2H]C([2H])([2H])N(C(=O)c1ccc(N2CCC(CN3CCN(c4cc5c(cc4F)C(=O)N(C4CCC(=O)NC4=O)C5=O)CC3)CC2)nn1)[C@H]1CC[C@H](Oc2ccc(C#N)c(Cl)c2)CC1` (stereo partly drawn) [Compound 133, N-((1r,4r)-4-(3-chloro-4-cyanophenoxy)cyclohexyl)-6-(4-((4-(2-(2,6-dioxopiperidin-3-yl)-6-fluoro-1,3-dioxoisoindolin-5-yl)piperazin-1-yl)methyl)piperidin-1-yl)-N-deuteromethyl-pyridazine-3-amide], for which the DC50 is > 0.3 µM and the Dmax is < 40%.
